Data as given in patent US20240182945A1, “PRODUCTS FOR REGULATION OF EUKARYOTIC AND MICROBIAL CELLS GROWTH” (priority 2021, published 2024).

Tests used:
[1] = system: S.aureus (PP) and MM in sputum from children with pneumonia; test: Degree of eradication of PP and MM on Columbia agar with antibiotic at concentrations achievable at the site of infection; format: cell-based; design: key to Degree of primary pathogen eradication, evaluation of ABEPP: % of primary pathogen (PP) eliminated
Experimental: We next tried to select antibiotics based on building a probability model. Antibiotic efficacy was evaluated based on a novel parameters: • ABEPPMM100—antibiotic concentration that is required for the elimination of 100% “complex” PP+MM. • ABEPPMM99—antibiotic concentration that is required for the elimination of 99% “complex” PP+MM.
ABEPPMM90—antibiotic concentration that is required for the elimination of 90% “complex” PP+MM.
ABEPPMM50—antibiotic concentration that is required for the elimination of 50% “complex” PP+MM.
ABEPP100—antibiotic concentration that affecting on “complex” PP+MM is required for the elimination of 100% PP.
ABEPP99—antibiotic concentration that affecting on “complex” PP+MM is required for the elimination of 99% PP.
ABEPP90—antibiotic concentration that affecting on “complex” PP+MM is required for the elimination of 90% PP.
ABEPP50—antibiotic concentration that affecting on “complex” PP+MM is required for the elimination of 50% PP.
We used sputum from children with pneumonia, with S.aureus as confirmed PP. Patient 1—child • Patient 2—child • Patient 3—child

[2] = system: bacteria of sputum from patients with lung diseases; test: Standard antibiotic susceptibility study using the microbroth dilution method (Algorithm #3); format: cell-based; note: key: '+'—presence of bacterial growth, antibiotic ineffective; '−'—absence of bacterial growth, antibiotic effective
Excerpt: Algorithm #3—Standard antibiotic susceptibility study using the microbroth dilution method.

A. ursingii = test: Growth of microbial modulator alone on antibiotic-supplemented Columbia agar; format: cell-based; conditions: Bacterial set #2; Cefepime (16 μg/mL); Columbia agar with erythrocytes 5%, 24 h at 37 C
R. dentocariosa = test: as above; format: cell-based; conditions: Bacterial set #2; Cefepime (16 μg/mL); Columbia agar with erythrocytes 5%, 24 h at 37 C
B. pumilus = test: as above; format: cell-based; conditions: Bacterial set #2; Cefepime (16 μg/mL); Columbia agar with erythrocytes 5%, 24 h at 37 C
P. aeruginosa = test: Growth of primary pathogen alone on antibiotic-supplemented Columbia agar; format: cell-based; conditions: Columbia agar with erythrocytes 5%, 24 h at 37 C
Experimental: Four sputum samples from patients with lung infections were used. Pure bacterial culture of each microorganisms was obtained by routine microbiological methods.
In this case this antibiotic at MIC of 16 ug/mL was used in the following studies. PP alone, or Microbial Modulators (MM) alone or the original sputum were plated on the wells of 24 well plate filled with nutrient Columbia agar supplemented with erythrocytes 5% and supplemented with antibiotics taken as MIC determined against PP, but not more than 16 μg/mL and incubated 24 h at 37 C.

[3] = cited from earlier work
[4] = system: bacteria of the biosample (persisters); test: Neutropenic mice instilled with biosample and treated with antibiotic for 72 h, microbial growth in organs and blood; format: in vivo; conditions: neutropenic C57BL/6 mice treated for 72 h, agar with 100 ug/mL of the antibiotic
Experimental: Next, we confirmed that antibiotics selected with proposed algorithm are effective. Adult C57BL/6 mice were rendered neutropenic by injecting cyclophosphamide subcutaneously 4 days before infection (150 mg/kg of body weight), 1 day before infection (100 mg/kg), and 1 day after infection (100 mg/kg). Mice were anesthetized with 2% isoflurane and orally instilled with biosample (stored at +4 C). Briefly, nares were blocked, and mice aspirated 50 μL of the biosample into the lungs while being held vertically for 60 s.

[5] = system: MIX—PP +BM (P. aeruginosa with microbial modulators); test: Growth of mix PP + MM (original sputum) on antibiotic-supplemented Columbia agar; format: cell-based; conditions: Columbia agar with erythrocytes 5%, 24 h at 37 C
B. sonorensis = test: Growth of microbial modulator alone on antibiotic-supplemented Columbia agar; format: cell-based; conditions: Bacterial set #1; Meropenem (16 μg/mL); Columbia agar with erythrocytes 5%, 24 h at 37 C
E. coli = test: as above; format: cell-based; conditions: Bacterial set #1; Meropenem (16 μg/mL); Columbia agar with erythrocytes 5%, 24 h at 37 C
S. anginosus = test: as above; format: cell-based; conditions: Bacterial set #1; Meropenem (16 μg/mL); Columbia agar with erythrocytes 5%, 24 h at 37 C
[6] = Patient 1, C0-1 h, 24 h of growth
[7] = Patient 1, C0-2 h, 24 h of growth
[8] = Patient 1, C0-3 h, 24 h of growth
[9] = Patient 1, C0-4 h, 24 h of growth
[10] = Patient 1, C0-6 h, 24 h of growth
[11] = Patient 1, C0-8 h, 24 h of growth
[12] = Patient 1, C0-12 h, 24 h of growth
[13] = Patient 1, C0-24 h, 24 h of growth
[14] = Patient 1, C2-3 h, 24 h of growth
[15] = Patient 1, C3-4 h, 24 h of growth
[16] = Patient 1, C4-6 h, 24 h of growth
[17] = Patient 1, C6-8 h, 24 h of growth
[18] = Patient 1, C8-12 h, 24 h of growth
[19] = Patient 1, C12-24 h, 24 h of growth
[20] = Patient 1, Cmax × 2, 24 h of growth
[21] = Patient 2, C0-3 h, 24 h of growth
[22] = Patient 2, C0-4 h, 24 h of growth
[23] = Patient 2, C0-6 h, 24 h of growth
[24] = Patient 2, C0-8 h, 24 h of growth
[25] = Patient 2, C0-12 h, 24 h of growth
[26] = Patient 2, C0-24 h, 24 h of growth
[27] = Patient 2, C3-4 h, 24 h of growth
[28] = Patient 2, C4-6 h, 24 h of growth
[29] = Patient 2, C6-8 h, 24 h of growth
[30] = Patient 2, C8-12 h, 24 h of growth
[31] = Patient 2, C12-24 h, 24 h of growth
[32] = Patient 3, C0-3 h, 24 h of growth
[33] = Patient 3, C0-4 h, 24 h of growth
[34] = Patient 3, C0-6 h, 24 h of growth
[35] = Patient 3, C0-8 h, 24 h of growth
[36] = Patient 3, C0-12 h, 24 h of growth
[37] = Patient 3, C0-24 h, 24 h of growth
[38] = Patient 3, C3-4 h, 24 h of growth
[39] = Patient 3, C4-6 h, 24 h of growth
[40] = Patient 3, C6-8 h, 24 h of growth
[41] = Patient 3, C8-12 h, 24 h of growth
[42] = Patient 3, C12-24 h, 24 h of growth
[43] = Bacterial set #2, Cefepime (16 μg/mL)
[44] = Bacterial set #1, Meropenem (16 μg/mL)

SMILES: CO/N=C(\C(=O)N[C@@H]1C(=O)N2C(C(=O)[O-])=C(C[N+]3(C)CCCC3)CS[C@H]12)c1csc(N)n1 [Cefepime]
- Degree of primary pathogen eradication, evaluation of ABEPP [1, 6]: 100
- Degree of primary pathogen eradication, evaluation of ABEPPMM [1, 6]: 100
- Degree of primary pathogen eradication, evaluation of ABEPP [1, 7]: 100
- Degree of primary pathogen eradication, evaluation of ABEPPMM [1, 7]: 100
- Degree of primary pathogen eradication, evaluation of ABEPP [1, 8]: 100
- Degree of primary pathogen eradication, evaluation of ABEPPMM [1, 8]: 100
- Degree of primary pathogen eradication, evaluation of ABEPP [1, 9]: 100
- Degree of primary pathogen eradication, evaluation of ABEPPMM [1, 9]: 100
- Degree of primary pathogen eradication, evaluation of ABEPP [1, 10]: 100
- Degree of primary pathogen eradication, evaluation of ABEPPMM [1, 10]: 100
- Degree of primary pathogen eradication, evaluation of ABEPP [1, 11]: 50
- Degree of primary pathogen eradication, evaluation of ABEPPMM [1, 11]: 50
- Degree of primary pathogen eradication, evaluation of ABEPP [1, 12]: 00
- Degree of primary pathogen eradication, evaluation of ABEPPMM [1, 12]: 00
- Degree of primary pathogen eradication, evaluation of ABEPP [1, 13]: 0
- Degree of primary pathogen eradication, evaluation of ABEPPMM [1, 13]: 0
- Degree of primary pathogen eradication, evaluation of ABEPP [1, 14]: 100
- Degree of primary pathogen eradication, evaluation of ABEPPMM [1, 14]: 100
- Degree of primary pathogen eradication, evaluation of ABEPP [1, 15]: 100
- Degree of primary pathogen eradication, evaluation of ABEPPMM [1, 15]: 100
- Degree of primary pathogen eradication, evaluation of ABEPP [1, 16]: 100
- Degree of primary pathogen eradication, evaluation of ABEPPMM [1, 16]: 100
- Degree of primary pathogen eradication, evaluation of ABEPP [1, 17]: 100
- Degree of primary pathogen eradication, evaluation of ABEPPMM [1, 17]: 100
- Degree of primary pathogen eradication, evaluation of ABEPP [1, 18]: 50
- Degree of primary pathogen eradication, evaluation of ABEPPMM [1, 18]: 00
- Degree of primary pathogen eradication, evaluation of ABEPP [1, 19]: 00
- Degree of primary pathogen eradication, evaluation of ABEPPMM [1, 19]: 00
- Degree of primary pathogen eradication, evaluation of ABEPP [1, 20]: 100
- Degree of primary pathogen eradication, evaluation of ABEPPMM [1, 20]: 100
- Degree of primary pathogen eradication, evaluation of ABEPP [1, 21]: 90
- Degree of primary pathogen eradication, evaluation of ABEPPMM [1, 21]: 90
- Degree of primary pathogen eradication, evaluation of ABEPP [1, 22]: 50
- Degree of primary pathogen eradication, evaluation of ABEPPMM [1, 22]: 50
- Degree of primary pathogen eradication, evaluation of ABEPP [1, 23]: 50
- Degree of primary pathogen eradication, evaluation of ABEPPMM [1, 23]: 50
- Degree of primary pathogen eradication, evaluation of ABEPP [1, 24]: 50
- Degree of primary pathogen eradication, evaluation of ABEPPMM [1, 24]: 50
- Degree of primary pathogen eradication, evaluation of ABEPP [1, 25]: 50
- Degree of primary pathogen eradication, evaluation of ABEPPMM [1, 25]: 50
- Degree of primary pathogen eradication, evaluation of ABEPP [1, 26]: 0
- Degree of primary pathogen eradication, evaluation of ABEPPMM [1, 26]: 0
- Degree of primary pathogen eradication, evaluation of ABEPP [1, 27]: 50
- Degree of primary pathogen eradication, evaluation of ABEPPMM [1, 27]: 50
- Degree of primary pathogen eradication, evaluation of ABEPP [1, 28]: 50
- Degree of primary pathogen eradication, evaluation of ABEPPMM [1, 28]: 50
- Degree of primary pathogen eradication, evaluation of ABEPP [1, 29]: 50
- Degree of primary pathogen eradication, evaluation of ABEPPMM [1, 29]: 50
- Degree of primary pathogen eradication, evaluation of ABEPP [1, 30]: 50
- Degree of primary pathogen eradication, evaluation of ABEPPMM [1, 30]: 50
- Degree of primary pathogen eradication, evaluation of ABEPP [1, 31]: 0
- Degree of primary pathogen eradication, evaluation of ABEPPMM [1, 31]: 0
- Degree of primary pathogen eradication, evaluation of ABEPP [1, 32]: 90
- Degree of primary pathogen eradication, evaluation of ABEPPMM [1, 32]: 90
- Degree of primary pathogen eradication, evaluation of ABEPP [1, 33]: 90
- Degree of primary pathogen eradication, evaluation of ABEPPMM [1, 33]: 90
- Degree of primary pathogen eradication, evaluation of ABEPP [1, 34]: 90
- Degree of primary pathogen eradication, evaluation of ABEPPMM [1, 34]: 90
- Degree of primary pathogen eradication, evaluation of ABEPP [1, 35]: 0
- Degree of primary pathogen eradication, evaluation of ABEPPMM [1, 35]: 0
- Degree of primary pathogen eradication, evaluation of ABEPP [1, 36]: 0
- Degree of primary pathogen eradication, evaluation of ABEPPMM [1, 36]: 0
- Degree of primary pathogen eradication, evaluation of ABEPP [1, 37]: 0
- Degree of primary pathogen eradication, evaluation of ABEPPMM [1, 37]: 0
- Degree of primary pathogen eradication, evaluation of ABEPP [1, 38]: 90
- Degree of primary pathogen eradication, evaluation of ABEPPMM [1, 38]: 90
- Degree of primary pathogen eradication, evaluation of ABEPP [1, 39]: 90
- Degree of primary pathogen eradication, evaluation of ABEPPMM [1, 39]: 90
- Degree of primary pathogen eradication, evaluation of ABEPP [1, 40]: 0
- Degree of primary pathogen eradication, evaluation of ABEPPMM [1, 40]: 0
- Degree of primary pathogen eradication, evaluation of ABEPP [1, 41]: 0
- Degree of primary pathogen eradication, evaluation of ABEPPMM [1, 41]: 0
- Degree of primary pathogen eradication, evaluation of ABEPP [1, 42]: 0
- Degree of primary pathogen eradication, evaluation of ABEPPMM [1, 42]: 0
- ATB efficacy [2]: +
- microbial growth, AU (BM alone) (A. ursingii): +
- microbial growth, RD (BM alone) (R. dentocariosa): −
- microbial growth, BP (BM alone) (B. pumilus): +
- microbial growth, PA (PP alone) (P. aeruginosa; [43]): +
- lung concentration after 8 h of administration ([3]; 8 h): 23 µg/mL
- lung concentration after 12 h of administration ([3]; 12 h): 8 µg/mL
- Number of animals with positive microbial growth on the agar with antibiotics/total number of animals per group ([4]; Blood): 4/8
- Number of animals with positive microbial growth on the agar with antibiotics/total number of animals per group ([4]; Liver): 2/8
- Number of animals with positive microbial growth on the agar with antibiotics/total number of animals per group ([4]; Lungs): 3/8
- microbial growth, MIX (PP + MM) [5, 43]: −

SMILES: C[C@@H](O)[C@H]1C(=O)N2C(C(=O)O)=C(S[C@@H]3CN[C@H](C(=O)N(C)C)C3)[C@H](C)[C@H]12 [Meropenem]
- microbial growth, BS (BM alone) (B. sonorensis): −
- microbial growth, PA (PP alone) (P. aeruginosa; [44]): +
- microbial growth, EC (BM alone) (E. coli): +
- microbial growth, MIX (PP + MM) [5, 44]: −
- microbial growth, SA (BM alone) (S. anginosus): −
